Literature values in patent publication US12364687B2 (BIOHAVEN PHARMACEUTICAL HOLDING COMPANY LTD., priority 2018, dated 2025).

Settings: taken with meals

food effect on exposure: reduced exposure when taken with meals
SMILES: Nc1nc2ccc(OC(F)(F)F)cc2s1 [riluzole, 6-(trifluoromethoxy)benzothiazol-2-amine]
